Read-outs that look alike come from different tables or passages of the source.

Data on 21 compounds can be found in US12435087B2, “Modulators of DCN-1 and methods of use thereof” (Cellarity, Inc., priority 2023, dated 2025).

The assay concerns the target DCN1 (DCUND1) protein PONY domain (Homo sapiens (Human), UniProt Q96GG9). Description: TR-FRET assay (binding to DCN-1, displacement of FAM-labeled probe).
Text: (§1) The TR-FRET assay was designed following the Scott et al. protocol (Scott et al., Nat Chem Biol. 2017 August; 13(8): 850-857. doi:10.1038/nchembio.2386). The recombinant form of the DCN1 (DCUND1) protein PONY domain was produced using an E. coli expression system at Viva Biotech (China). The DCN1 protein was biotinylated (EZ sulfo-NHS-LC-biotin; Thermofisher) for labeling with streptavidin terbium (Tb) cryptate in the reaction. The probe was changed to a non-covalent DCN1 inhibitor labeled with carboxyfluorescein (FAM; Zhou et al., Nat Commun. 2017; 8: 1150. doi: 10.1038/s41467-017-01243-7). Buffer conditions were modified to enhance protein stability by exchanging Tween20 for TritonX and increasing NaCl to 200 mM. The compounds were screened against 5 nM DCN1 and 20 nM FAM-probe or 0.31 nM DCN1 and 900 nM total probe (100 nM FAM-labeled plus 800 nM unlabeled). The TR-FRET ratio between Tb-DCN1 and the FAM-labeled probe was measured in a 384-well opti-plate (Perkin Elmer) using a plate reader (BMG) at 1, 5, and 24 hrs after treatment with compound (final DMSO concentration of 0.1%). The ratio was normalized to the high (DCN1 and FAM-probe) and low (DCN1 and no probe) controls for a readout of % activity (=100*(x−low)/(high−low).
A TR-FRET assay was performed to evaluate the ability of the compounds to bind the DCN-1 protein.
as §1, with “850-857. Doi: 10.1038/nchembio.2386).” for “850-857. doi:10.1038/nchembio.2386).”, “the DCNI” for “the DCN1”, “1150. Doi:” for “1150. doi:”, “0.1%).” for “0.1%). The ratio was normalized to the high (DCN1 and FAM-probe) and low (DCN1 and no probe) controls for a readout of % activity (=100*(x−low)/(high−low).”
On the technique in general: Time-resolved FRET reads energy transfer from a long-lived donor to a nearby acceptor.

The mark [1] stands for this setting: 24 hr after treatment with compound, read-out: TR FRET IC50 24 hr.
[2] abbreviates: TR FRET IC50 1 hr (nM), 1 hr after treatment with compound.

Chain of DCN1 (DCUND1) protein PONY domain (Q96GG9 60-248): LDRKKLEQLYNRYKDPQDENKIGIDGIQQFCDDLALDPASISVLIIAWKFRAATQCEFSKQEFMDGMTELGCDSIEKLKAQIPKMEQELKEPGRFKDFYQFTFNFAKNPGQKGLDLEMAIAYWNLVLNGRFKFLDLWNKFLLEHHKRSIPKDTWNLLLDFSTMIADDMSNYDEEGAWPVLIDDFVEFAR

One may read the IC50 as the midpoint of a concentration-inhibition curve. On to `CCN1C(=O)[C@H](NC(=O)c2cccc(C(F)(F)F)c2)[C@@H](c2cccc(NC(=O)C#CCN(C)C)c2)c2cnn(-c3ccccc3)c21` (racemic) [Compound I-132, rac-N-((4R,5S)-4-(3-(4-(dimethylamino)but-2-ynamido)phenyl)-7-ethyl-6-oxo-1-phenyl-4,5,6,7-tetrahydro-1H-pyrazolo[3,4-b]pyridin-5-yl)-3-(trifluoromethyl)benzamide], for which the IC50 is, setting by setting: under setting [1], 200 to 1000 nM; under setting [2], 200 to 1000 nM.

Regarding `CCN1C(=O)[C@@H](NC(=O)c2cccc(C(F)(F)F)c2)[C@H](c2cccc(CNC#N)c2)c2c(C)nn(-c3ccccc3)c21` (racemic) [Compound I-138], the IC50 under setting [1] is 200 to 1000 nM and the IC50 under setting [2] lay in the range of 200 to 1000 nM.

In the case of `CCN1C(=O)[C@H](NC(=O)c2cccc(C(F)(F)F)c2)[C@@H](c2cccc(NC(=O)C#CCN3CCOCC3)c2)c2c(C)nn(-c3ccccc3)c21` (racemic) [Compound I-139, rac-N-((4R,5S)-7-ethyl-3-methyl-4-(3-(4-morpholinobut-2-ynamido)phenyl)-6-oxo-1-phenyl-4,5,6,7-tetrahydro-1H-pyrazolo[3,4-b]pyridin-5-yl)-3-(trifluoromethyl)benzamide], the IC50 under setting [1] fell in the range of 200 to 1000 nM and the IC50 under setting [2] lay within 1000 to 3000 nM.

Consider `C=C(F)C(=O)Nc1cccc([C@H]2c3c(C)nn(-c4ccccc4)c3N(CC)C(=O)[C@@H]2NC(=O)c2cccc(C(F)(F)F)c2)c1` (racemic) [Compound I-140, N-((4S,5R)-7-ethyl-4-(3-(2-fluoroacrylamido)phenyl)-3-methyl-6-oxo-1-phenyl-4,5,6,7-tetrahydro-1H-pyrazolo[3,4-b]pyridin-5-yl)-3(trifluoromethyl) benzamide], for which the 50% inhibitory concentration (IC50) was > 3000 nM under setting [1] and > 3000 nM under setting [2].

Take `CCN1C(=O)[C@@H](NC(=O)c2cccc(C(F)(F)F)c2)[C@H](c2cccc(CNC(=O)/C=C/C(=O)OC)c2)c2cnn(-c3ccccc3)c21` (racemic) [Compound I-143]: the IC50 lay within 200 to 1000 nM under setting [1] and 1000 to 3000 nM under setting [2].

On to `CCN1C(=O)[C@@H](NC(=O)c2cccc(C(F)(F)F)c2)[C@H](c2cccc(NC(=O)/C(C)=C/C(=O)OC)c2)c2c(C)nn(-c3ccccc3)c21` (racemic) [Compound I-145], for which the IC50 was 200 to 1000 nM under setting [1] and 1000 to 3000 nM under setting [2].

For `C=C(CN1CCOCC1)C(=O)Nc1cccc([C@H]2c3c(C)nn(-c4ccccc4)c3N(CCO)C(=O)[C@@H]2NC(=O)c2cccc(C(F)(F)F)c2)c1` (racemic) [Compound I-147, rac-N-((4R,5S)-7-(2-hydroxyethyl)-3-methyl-4-(3-(2-(morpholinomethyl)acrylamido)phenyl)-6-oxo-1-phenyl-4,5,6,7-tetrahydro-1H-pyrazolo[3,4-b]pyridin-5-yl)-3-(trifluoromethyl)benzamide], the concentration for half-maximal inhibition (IC50) by setting is: under setting [1], ≤ 200 nM; under setting [2], ≤ 200 nM.

On to `CCN1C(=O)[C@@H](NC(=O)c2cccc(C(F)(F)F)c2)[C@@H](c2cccc(NC(=O)C3=CCN(C)C3)c2)c2c(C)nn(-c3ccccc3)c21` (racemic) [Compound I-148], for which the half-inhibitory concentration (IC50) is 200 to 1000 nM under setting [1] and 1000 to 3000 nM under setting [2].

Consider `CCN1C(=O)[C@@H](NC(=O)c2cccc(C(F)(F)F)c2)[C@H](c2ccccc2CNC#N)c2c(C)nn(-c3ccccc3)c21` (racemic) [Compound I-149], for which the 50% inhibitory concentration (IC50) by setting is: under setting [1], 200 to 1000 nM; under setting [2], 1000 to 3000 nM.

Take `C=C(CN1CCOCC1)C(=O)NCc1ccccc1[C@@H]1c2cnn(-c3ccccc3)c2N(CC)C(=O)[C@H]1NC(=O)c1cccc(C(F)(F)F)c1` (racemic) [Compound I-153]: the 50% inhibitory concentration (IC50) is, setting by setting: under setting [1], ≤ 200 nM; (read-out: TR FRET IC50 1 hr, 1 hr after treatment with compound) ≤ 200 nM.

For `CCN1C(=O)[C@@H](NC(=O)c2cccc(C(F)(F)F)c2)[C@H](c2cccc(NC(=O)/C=C(\C)C(=O)OC)c2)c2c(C)nn(-c3ccccc3)c21` (racemic) [Compound I-157], the half-inhibitory concentration (IC50) is, setting by setting: under setting [1], 200 to 1000 nM; under setting [2], 1000 to 3000 nM.

With `CCN1C(=O)[C@H](NC(=O)c2cccc(C(F)(F)F)c2)[C@@H](c2cccc(NC(=O)/C=C/CN(C)C)c2)c2c(CN(C)C)nn(-c3ccccc3)c21` (racemic) [Compound I-212, ˜{N}—[˜{rac}-(4˜{S},5˜{R})-3-[(dimethylamino)methyl]-7-ethyl-6-oxo-1-phenyl-4-[3-[[˜{rac}-(˜{E})-4-(dimethylamino)but-2-enoyl]amino]phenyl]-4,5-dihydropyrazolo[3,4-b]pyridin-5-yl]-3-(trifluoromethyl)benzamide], the half-inhibitory concentration (IC50) reads like this: under setting [1], ≤ 200 nM; under setting [2], 200 to 1000 nM.

For `CCN1C(=O)[C@H](NC(=O)c2cccc(C(F)(F)F)c2)[C@@H](c2cccc(NC(=O)/C=C/CN(C)C)c2)c2c(CO)nn(-c3ccccc3)c21` (racemic) [Compound I-213, ˜{N}—[˜{rac}-(4˜{S},5˜{R})-7-ethyl-3-(hydroxymethyl)-6-oxo-1-phenyl-4-[3-[[˜{rac}-(˜{E})-4-(dimethylamino)but-2-enoyl]amino]phenyl]-4,5-dihydropyrazolo[3,4-b]pyridin-5-yl]-3-(trifluoromethyl)benzamide], the IC50 runs as follows: under setting [1], 200 to 1000 nM; under setting [2], 1000 to 3000 nM.

As to `C/C=C(/CN1CCN(C2COC2)CC1)C(=O)NCc1cccc([C@@H]2c3cnn(-c4ccccc4)c3N(CC)C(=O)[C@H]2NC(=O)c2nccc(C(F)(F)F)n2)c1` (racemic) [Compound I-257], the half-maximal inhibitory concentration (IC50) by setting is: under setting [1], 1000 to 3000 nM; under setting [2], 1000 to 3000 nM.

Regarding `CCN1C(=O)[C@@H](NC(=O)c2nccc(C(F)(F)F)n2)[C@H](c2ccccc2/C=C/C#N)c2cnn(-c3ccccc3)c21` (racemic) [Compound I-259, rac-N-((4R,5S)-4-(2-((E)-2-cyanovinyl)phenyl)-7-ethyl-6-oxo-1-phenyl-4,5,6,7-tetrahydro-1H-pyrazolo[3,4-b]pyridin-5-yl)-4-(trifluoromethyl)pyrimidine-2-carboxamide], the concentration for half-maximal inhibition (IC50) under setting [1] was in the range of 1000 to 3000 nM and the 50% inhibitory concentration (IC50) under setting [2] is 1000 to 3000 nM.

Take `CCN1C(=O)[C@@H](NC(=O)c2nccc(C(F)(F)F)n2)[C@H](c2ccccc2/C=C\C#N)c2cnn(-c3ccccc3)c21` (racemic) [Compound I-260, rac-N-((4R,5S)-4-(2-((Z)-2-cyanovinyl)phenyl)-7-ethyl-6-oxo-1-phenyl-4,5,6,7-tetrahydro-1H-pyrazolo[3,4-b]pyridin-5-yl)-4-(trifluoromethyl)pyrimidine-2-carboxamide]: the IC50 under setting [1] fell in the range of 1000 to 3000 nM and the 50% inhibitory concentration (IC50) under setting [2] is 1000 to 3000 nM.

Take `CCN1C(=O)[C@@H](NC(=O)c2nccc(C(F)(F)F)n2)[C@H](c2cccc(NC(=O)/C=C/C(=O)N3CCCC3)c2)c2c(C)nn(-c3ccccc3)c21` (racemic) [Compound I-262]: the 50% inhibitory concentration (IC50) runs as follows: under setting [1], 1000 to 3000 nM; under setting [2], 1000 to 3000 nM.

`CCN1C(=O)[C@@H](NC(=O)c2nccc(C(F)(F)F)n2)[C@H](c2cccc(NC(=O)/C=C/CN(C)C)n2)c2cnn(-c3ccccc3)c21` (racemic) [Compound I-265]: the 50% inhibitory concentration (IC50) by setting is: under setting [1], 200 to 1000 nM; under setting [2], 200 to 1000 nM.

In the case of `CCN1C(=O)[C@@H](NC(=O)c2nccc(C(F)(F)F)n2)[C@H](c2cccc(NC(=O)C3=CCC3)n2)c2cnn(-c3ccccc3)c21` (racemic) [Compound I-279], the IC50 reads like this: under setting [1], 1000 to 3000 nM; under setting [2], 1000 to 3000 nM.

For `CCN1C(=O)[C@@H](NC(=O)c2cccc(C(F)(F)F)c2)[C@H](c2cccc3c2CN(C#N)C3)c2cnn(-c3ccccc3)c21` (racemic) [Compound I-282, rac-N-((4R,5S)-4-(2-cyanoisoindolin-4-yl)-7-ethyl-6-oxo-1-phenyl-4,5,6,7-tetrahydro-1H-pyrazolo[3,4-b]pyridin-5-yl)-3-(trifluoromethyl)benzamide], the IC50 reads like this: under setting [1], 1000 to 3000 nM; under setting [2], 1000 to 3000 nM.

With `CCN1C(=O)[C@@H](NC(=O)c2nccc(C(F)(F)F)n2)[C@H](c2cccc(NC(=O)/C=C/C(=O)OC(C)(C)C)c2)c2c(C)nn(-c3ccccc3)c21` (racemic) [Compound I-359, rac-tert-butyl (E)-4-((3-((4R,5S)-7-ethyl-3-methyl-6-oxo-1-phenyl-5-(4-(trifluoromethyl)pyrimidine-2-carboxamido)-4,5,6,7-tetrahydro-1H-pyrazolo[3,4-b]pyridin-4-yl)phenyl)amino)-4-oxobut-2-enoate], the IC50 reads like this: under setting [1], ≤ 200 nM; under setting [2], 1000 to 3000 nM.
